According to a compilation of properties of binary mixtures (doi:10.1007/s10953-014-0273-1):

Assay: xn = mol fraction of the nth substance listed
Conditions: 101 kPa

CCCC[n+]1ccn(C)c1.F[B-](F)(F)F + CC#N
viscosity [mPa·s]
Conditions	x2 = 0	x2 = 0.1001	x2 = 0.2034	x2 = 0.3011	x2 = 0.4013	x2 = 0.5	x2 = 0.6018	x2 = 0.7	x2 = 0.7997	x2 = 0.9001
303.15 K	–	55.2	–	23.74	14.97	9.25	5.34	3	1.611	0.792
313.15 K	53	36.5	24.4	16.9	–	7.14	–	2.522	1.389	0.707
323.15 K	–	25.36	17.76	–	8.57	–	3.58	2.155	–	0.636
333.15 K	25.01	18.43	13.23	9.83	6.83	4.69	3.03	1.877	1.103	0.579

CN1CCCC1=O + CCCC[n+]1ccn(C)c1.F[B-](F)(F)F
Conditions	viscosity [mPa·s]
303.15 K, x1 = 1	1.551

CC#N + CCCC[n+]1ccn(C)c1.F[B-](F)(F)F
x1 = 1
Conditions	viscosity [mPa·s]
303.15 K	0.329
313.15 K	0.3
323.15 K	0.276

CC(=O)N(C)C + CCCC[n+]1ccn(C)c1.F[B-](F)(F)F
x1 = 1
Conditions	viscosity [mPa·s]
303.15 K	0.882
323.15 K	0.69
333.15 K	0.618

CO + CCCC[n+]1ccn(C)c1.F[B-](F)(F)F
x1 = 1
Conditions	viscosity [mPa·s]
313.15 K	0.455
323.15 K	0.401

CCCC[n+]1ccn(C)c1.F[B-](F)(F)F + CC(=O)N(C)C
viscosity [mPa·s]
Conditions	x2 = 0	x2 = 0.1006	x2 = 0.2004	x2 = 0.3005	x2 = 0.4011	x2 = 0.5002	x2 = 0.5998	x2 = 0.6996	x2 = 0.8002	x2 = 0.8999
303.15 K	84.2	59	41.6	29	19.38	12.88	8.32	4.99	2.95	1.679
313.15 K	53	38.5	28	20.16	14	–	6.32	4	2.44	–
323.15 K	35.5	26.6	19.88	14.62	10.55	7.37	–	–	2.069	–
333.15 K	25.01	19.27	14.76	11.08	8.15	5.87	4.09	2.77	–	1.1

CCCC[n+]1ccn(C)c1.F[B-](F)(F)F + CN1CCCC1=O
viscosity [mPa·s]
Conditions	x2 = 0	x2 = 0.0999	x2 = 0.2001	x2 = 0.3028	x2 = 0.4	x2 = 0.4999	x2 = 0.5998	x2 = 0.7001	x2 = 0.8003	x2 = 0.9001
303.15 K	–	–	–	–	–	17.17	11.43	7.37	4.64	2.9
313.15 K	53	41	31.6	23.77	17.42	12.5	8.61	5.75	3.76	2.409
323.15 K	–	28.2	22.15	17.13	13	9.47	6.73	–	3.13	1.991
333.15 K	25.01	20.3	16.25	12.83	9.93	7.46	5.37	3.79	2.66	1.722

CCCC[n+]1ccn(C)c1.F[B-](F)(F)F + CO
viscosity [mPa·s]
Conditions	x2 = 0	x2 = 0.1003	x2 = 0.2047	x2 = 0.2997	x2 = 0.3996	x2 = 0.504	x2 = 0.6004	x2 = 0.6992	x2 = 0.7997	x2 = 0.9001
303.15 K	84.2	54.2	34.6	23.54	15.02	9.42	–	3.67	2.118	1.141
313.15 K	–	–	–	16.93	11.32	7.4	4.86	3.03	–	–
323.15 K	35.5	–	17.81	12.9	8.94	6.02	–	2.537	1.527	0.895
333.15 K	25.01	18.68	13.6	10.13	–	5.03	3.42	2.195	1.337	0.765
